Laboratory results as given in US20100173853A1, “COMBINATION OF MONOSACCHARIDES WITH ASCORBIC ACID AND USE THEREOF” (L'OREAL, priority 2008, published 2010).
Entries after “also recorded” stand apart in the source; their conditions may differ.

Experiments:
[1] = system: keratinocytes (HaCat line); assay: Proliferation of keratinocytes in medium deficient in growth factors (Cyquant, Nile red, XTT probes); assay type: cell-based; settings: HaCat keratinocytes in medium depleted in growth factors
Procedure: The keratinocytes (HaCat line) are cultured under two conditions: whole defined culture medium (standard condition) and culture medium deficient in growth factors. This deficient medium gives rise to a controlled delay in cell proliferation. Under these conditions, it is then possible to measure the effects of compounds capable of compensating for the deficiency in growth factors of the culture medium and thus of relaunching the cell multiplication and/or of stimulating cell metabolism.
The keratinocyte proliferation is measured by means of three markers on the same cell population: the level of DNA, which is proportional to the number of cells (Cyquant probe), the level of constituent polar lipids of cell membranes (Nile red probe) and the mitochondrial respiration, which reflects the general cell metabolism (XTT probe).

type I procollagen = assay: Synthesis of procollagen 1 in reconstructed skin (indirect immunofluorescence); assay type: cell-based, human
Collagen VI Col6A1 = assay: Expression of collagen VI alpha 1-chain by dermal fibroblasts (RNA); assay type: cell-based; settings: human dermal fibroblasts; Rhamnose 1 mM, Vitamin C 50 μM, alone or associated; D3 or D5 not stated
Procedure: (§1) This example describes the synergic effect of the association of vitamin C with L-rhamnose on the expression of the alpha 1-chain of collagens VI and XII of the extracellular matrix.
(§2) Human dermal fibroblasts (used at the ninth passage) are obtained from mammary or abdominal surgeries. The culture medium implemented is DMEM, supplemented with: • fetal calf serum (FCS), 10% • L-Glutamine, 2 mM (Invitrogen 25030024), • Penicillin (50 UI/mL), streptomycin (50 μg/mL), (Invitrogen 15070063), • Sodium pyruvate (Invitrogen 11360039), and • Non essential amino acids (Invitrogen 11140035).
(§3) Fibroblasts are cultured (D0) in supplemented DMEM medium as described above, incubated at 37° C. znd 5% CO2 in an atmosphere saturated with water. After adhesion of the cells (D1), the culture medium is removed and replaced with medium containing vitamin C, L-rhamnose or their association. The different stimulation conditions (vitamin C 25 μM, 50 μM, Rhamnose 1 mM and the different associations) were performed in triplicate (12 well dish). Studies of the expression of the different collagenes were performed on D3 and D5.
(§4) For each condition and at each time (D3 and D5), the supernatants are removed and the cell lawns are lysed. […]
(§5) RNAs are then quantified in fluorescence according to the Ribogreen protocol (Quan-it, Ribogreen RNA assay kit, invitrogen R11490) and reading with Tecan Safire. […]

Collagen XII Cola12A1 = assay: Expression of collagen XII alpha 1-chain by dermal fibroblasts (RNA); assay type: cell-based; settings: human dermal fibroblasts; Rhamnose 1 mM, Vitamin C 50 μM, alone or associated; D3 or D5 not stated
Procedure: as §1, §2, §3, §4, §5

| SMILES | keratinocyte proliferation (efficacy) ([1]; 500 μM) | level of DNA (Cyquant) ([1]; 1 mM, vs untreated control) | level of polar lipids (Nile red signal) ([1]; 1 mM, vs untreated control) | mitochondrial respiration (XTT signal) ([1]; 1 mM, vs untreated control) | procollagen 1 synthesis (green fluorescence) vs control skin (type I procollagen; 1 mM, 120 hours) | procollagen 1 synthesis (type I procollagen; 5 mM) | intensity of the biosynthesis of Collagen VI (Col6A1) compared to the control that is at 100 (Collagen VI Col6A1) | intensity of the biosynthesis of Collagen XII (Cola12A1) compared to the control that is at 100 (Collagen XII Cola12A1) |
| --- | --- | --- | --- | --- | --- | --- | --- | --- |
| C[C@H](O)[C@H](O)[C@@H](O)[C@@H](O)C=O [Rhamnose, L-rhamnose] | already show efficacy | significantly increased | significantly increased | significantly increased | stimulation; also recorded: marked increase | stimulation | 109 | 115 |
| O=C1O[C@H]([C@@H](O)CO)C(O)=C1O [Vitamin C, ascorbic acid] |  |  |  |  |  |  | 154 | 124 |
